{"source": "patent US10881110B2", "about": "“Herbicidal compositions comprising isoxazolo[5,4-b]pyridines” (BASF SE, priority 2014, dated 2021)", "assay_in_all_cases": "greenhouse post-emergence herbicidal test", "key": {"[1]": {"test_system": "PAPRH", "assay_type": "in vivo, Papaver rhoeas", "parameters": "key: rating on a scale from 0 to 100", "method": "(§1) The culture containers used were plastic pots containing medium loamy sand with approximately 4.6% of humus and 69.9% sand as substrate. The seeds of the test plants were sown separately for each species.\n(§2) For the post-emergence treatment, the test plants were grown to a plant height of from 1 to 15 cm, depending on the plant habit, and only then treated with the active compounds which had been suspended or emulsified in water. To this end, the test plants were either sown directly, and grown in the same containers, or they were first grown separately as seedlings and transplanted into the test containers a few days prior to treatment.\n(§3) Depending on the species, the plants were kept at 10-25° C. and 20-35° C., respectively.\n(§4) The test period extended over 1 to 3 weeks. During this time, the plants were tended and their response to the individual treatments was evaluated 20 days after treatment except mentioned otherwise.\n(§5) Evaluation was carried out using a scale from 0 to 100. 100 means no emergence of the plants, or complete destruction of at least the above-ground parts, and 0 means no damage or normal course of growth.\n(§6) The respective stated components A and B, and, if appropriate, C, were formulated as a 10% by weight strength emulsion concentrate and, with addition of the amount of solvent system, introduced into the spray liquor used for applying the active compound. In the examples, the solvent used was water.\n(§7) In the examples below, using the method of S. R. Colby (1967) “Calculating synergistic and antagonistic responses of herbicide combinations”, Weeds 15, p. 22 ff., the value E, which is expected if the activity of the individual active compounds is only additive, was calculated. E=X+Y−(X·Y/100)"}, "[2]": {"test_system": "POLCO", "assay_type": "in vivo, Polygonum convolvulus", "conditions": "post emergence", "method": "as §1, §2, §3, §4, §5, §6, §7"}, "[3]": {"test_system": "ERICA", "assay_type": "in vivo, Conyza canadensis", "parameters": "key to herbicidal activity against ERICA found: rating on a scale from 0 to 100", "conditions": "post emergence", "method": "as §1, §2, §3, §4, §5, §6, §7"}, "[4]": {"test_system": "VIOAR", "assay_type": "in vivo, Viola arvensis", "parameters": "key to herbicidal activity against VIOAR found / herbicidal activity against VIOLA found: rating on a scale from 0 to 100", "conditions": "post emergence", "method": "as §1, §2, §3, §4, §5, §6, §7"}, "[5]": {"test_system": "ALOMY", "assay_type": "in vivo, Alopecurus myosuroides", "parameters": "key to herbicidal activity against ALOMY found: rating on a scale from 0 to 100", "conditions": "post emergence", "method": "as §1, §2, §3, §4, §5, §6, §7"}, "[6]": {"test_system": "APESV", "assay_type": "in vivo, Apera spica-venti", "parameters": "key to herbicidal activity against APESV found: rating on a scale from 0 to 100", "conditions": "post emergence", "method": "as §1, §2, §3, §4, §5, §6, §7"}, "[7]": {"test_system": "ABUTH", "assay_type": "in vivo, Abutilon theophrast", "parameters": "key to herbicidal activity against ABUTH found: rating on a scale from 0 to 100", "conditions": "post emergence", "method": "as §1, §2, §3, §4, §5, §6, §7"}, "[8]": {"test_system": "GERDI", "assay_type": "in vivo, Geranium dissectum", "parameters": "key to herbicidal activity against GERDI found: rating on a scale from 0 to 100", "conditions": "post emergence, B.52 2.5", "method": "as §1, §2, §3, §4, §5, §6, §7"}, "[9]": {"test_system": "IPOHE", "assay_type": "in vivo, Ipomoea hederacea", "parameters": "key to herbicidal activity against IPOHE found: rating on a scale from 0 to 100", "conditions": "post emergence; g/ha a.i.: I.1 31.25; B.20 2; mixture 31.25+2", "method": "as §1, §2, §3, §4, §5, §6, §7"}, "[10]": {"test_system": "MATCH", "assay_type": "in vivo, Matricaria recutita", "parameters": "key to herbicidal activity against MATCH found: rating on a scale from 0 to 100", "conditions": "post emergence; applied alone at 15 g/ha a.i.", "method": "as §1, §2, §3, §4, §5, §6, §7"}, "[11]": {"test_system": "KCHSC", "assay_type": "in vivo, Kochia scoparia", "conditions": "post emergence", "method": "as §1, §2, §3, §4, §5, §6, §7"}, "[12]": {"test_system": "GALAP", "assay_type": "in vivo, Galium aparine", "conditions": "post emergence", "method": "as §1, §2, §3, §4, §5, §6, §7"}, "[13]": {"conditions": "g/ha a.i.: I.1 31.25, B.52 2.5, mixture 31.25+2.5"}, "[14]": {"conditions": "g/ha a.i.: I.1 31.25, B.52 5, mixture 31.25+5"}, "[15]": {"conditions": "g/ha a.i.: I.1 62.5, B.52 2.5, mixture 62.5+2.5"}, "[16]": {"conditions": "g/ha a.i.: I.1 125, B.52 2.5, mixture 125+2.5"}, "[17]": {"conditions": "g/ha a.i.: I.1 62.5, B.20 4, mixture 62.5+4"}}}
{"smiles": "COc1ncc(F)c2nc(S(=O)(=O)Nc3c(F)cccc3F)nn12", "note": "[B.26, florasulam]", "values": [{"measurement": "herbicidal activity against PAPRH found", "setting": "[1]; 2 g/ha a.i.", "value": 98}, {"measurement": "herbicidal activity against POLCO found", "setting": "[2]; 2 g/ha a.i.", "value": 85}]}
{"smiles": "CCS(=O)(=O)c1nc2ccccn2c1S(=O)(=O)NC(=O)Nc1nc(OC)cc(OC)n1", "note": "[B.60, sulfosulfuron]", "values": [{"measurement": "pest or weed control at 3 g/ha", "setting": "[3]; Erigeron canadensis, post-emergence, 480 h, 3 g/ha a.i., read-out: herbicidal activity against ERICA found", "value": 75, "unit": "%"}, {"measurement": "pest or weed control at 3 g/ha", "setting": "[4]; Viola arvensis, post-emergence, 3 g/ha a.i., read-out: herbicidal activity against VIOAR found", "value": 65, "unit": "%"}, {"measurement": "herbicidal activity against PAPRH found", "setting": "[1]; 3 g/ha a.i.", "value": 90}, {"measurement": "pest or weed control at 3 g/ha", "setting": "[5]; Alopecurus myosuroides, post-emergence, 480 h, 3 g/ha a.i., read-out: herbicidal activity against ALOMY found", "value": 60, "unit": "%"}, {"measurement": "pest or weed control at 3 g/ha", "setting": "[2]; Fallopia convolvulus, post-emergence, 480 h, 3 g/ha a.i., read-out: herbicidal activity against POLCO found", "value": 90, "unit": "%"}, {"measurement": "pest or weed control at 3 g/ha", "setting": "[6]; Apera spica-venti, post-emergence, 480 h, 3 g/ha a.i., read-out: herbicidal activity against APESV found", "value": 60, "unit": "%"}]}
{"smiles": "COc1cnc(OC)n2nc(NS(=O)(=O)c3c(OCC(F)F)cccc3C(F)(F)F)nc12", "note": "[B.52, penoxsulam]", "values": [{"measurement": "herbicidal activity against ERICA found", "setting": "[3]; [13]", "value": 90}, {"measurement": "herbicidal activity against ERICA found", "setting": "[3]; [14]", "value": 90}, {"measurement": "herbicidal activity against ERICA found", "setting": "[3]; [15]", "value": 90}, {"measurement": "herbicidal activity against ERICA found", "setting": "[3]; g/ha a.i.: I.1 62.5, B.52 5, mixture 62.5+5", "value": 90}, {"measurement": "herbicidal activity against VIOAR found", "setting": "[4]; [15]", "value": 0}, {"measurement": "herbicidal activity against VIOAR found", "setting": "[4]; [16]", "value": 0}, {"measurement": "herbicidal activity against VIOAR found", "setting": "[4]; g/ha a.i.: I.1 125, B.52 5, mixture 125+5", "value": 60}, {"measurement": "herbicidal activity against ABUTH found", "setting": "[7]; [13]", "value": 85}, {"measurement": "herbicidal activity against ABUTH found", "setting": "[7]; [14]", "value": 90}, {"measurement": "herbicidal activity against ABUTH found", "setting": "[7]; [15]", "value": 85}, {"measurement": "herbicidal activity against GERDI found", "setting": "[8]; g/ha a.i.: I.1 31.25, mixture 31.25+2.5", "value": 80}, {"measurement": "herbicidal activity against GERDI found", "setting": "[8]; g/ha a.i.: I.1 62.5, mixture 62.5+2.5", "value": 80}, {"measurement": "herbicidal activity against GERDI found", "setting": "[8]; g/ha a.i.: I.1 125, mixture 125+2.5", "value": 80}, {"measurement": "herbicidal activity against ALOMY found", "setting": "[5]; [13]", "value": 55}, {"measurement": "herbicidal activity against ALOMY found", "setting": "[5]; [15]", "value": 55}, {"measurement": "herbicidal activity against ALOMY found", "setting": "[5]; [16]", "value": 55}, {"measurement": "herbicidal activity against APESV found", "setting": "[6]; [15]", "value": 55}, {"measurement": "herbicidal activity against APESV found", "setting": "[6]; [16]", "value": 55}]}
{"smiles": "COc1cc(OC)nc(Oc2cccc(Oc3nc(OC)cc(OC)n3)c2C(=O)O)n1", "note": "[B.20, bispyribac-sodium]", "values": [{"measurement": "herbicidal activity against ABUTH found", "setting": "[7]; g/ha a.i.: I.1 31.25, B.20 2, mixture 31.25+2", "value": 35}, {"measurement": "herbicidal activity against ABUTH found", "setting": "[7]; g/ha a.i.: I.1 31.25, B.20 4, mixture 31.25+4", "value": 65}, {"measurement": "herbicidal activity against IPOHE found", "setting": "[9]", "value": 30}, {"measurement": "herbicidal activity against ALOMY found", "setting": "[5]; [17]", "value": 55}, {"measurement": "herbicidal activity against ALOMY found", "setting": "[5]; g/ha a.i.: I.1 125, B.20 2, mixture 125+2", "value": 30}, {"measurement": "herbicidal activity against ALOMY found", "setting": "[5]; g/ha a.i.: I.1 125, B.20 4, mixture 125+4", "value": 55}, {"measurement": "herbicidal activity against APESV found", "setting": "[6]; [17]", "value": 60}]}
{"smiles": "CCOC(=O)[C@@H](C)Oc1ccc(Oc2cnc3cc(Cl)ccc3n2)cc1", "note": "[quizalofop-p-ethyl]", "values": [{"measurement": "herbicidal activity against ERICA found", "setting": "[3]; applied alone at 7.5 g/ha a.i.", "value": 0}, {"measurement": "herbicidal activity against ERICA found", "setting": "[3]; applied alone at 15 g/ha a.i.", "value": 20}, {"measurement": "herbicidal activity against VIOAR found", "setting": "[4]; applied alone at 7.5 g/ha a.i.", "value": 0}, {"measurement": "herbicidal activity against VIOAR found", "setting": "[4]; applied alone at 15 g/ha a.i.", "value": 0}, {"measurement": "herbicidal activity against MATCH found", "setting": "[10]", "value": 0}, {"measurement": "herbicidal activity against ABUTH found", "setting": "[7]; applied alone at 7.5 g/ha a.i.", "value": 15}, {"measurement": "herbicidal activity against ABUTH found", "setting": "[7]; applied alone at 15 g/ha a.i.", "value": 25}, {"measurement": "herbicidal activity against PAPRH found", "setting": "[1]; applied alone at 15 g/ha a.i.", "value": 50}]}
{"smiles": "CC(C)=NOCCOC(=O)[C@@H](C)Oc1ccc(Oc2cnc3cc(Cl)ccc3n2)cc1", "note": "[propaquizafop]", "values": [{"measurement": "herbicidal activity against ERICA found", "setting": "[3]; applied alone at 5 g/ha a.i.", "value": 0}, {"measurement": "herbicidal activity against KCHSC found", "setting": "[11]; applied alone at 5 g/ha a.i.", "value": 0}, {"measurement": "herbicidal activity against KCHSC found", "setting": "[11]; applied alone at 10 g/ha a.i.", "value": 10}, {"measurement": "herbicidal activity against ABUTH found", "setting": "[7]; applied alone at 10 g/ha a.i.", "value": 30}, {"measurement": "herbicidal activity against ALOMY found", "setting": "[5]; applied alone at 5 g/ha a.i.", "value": 55}, {"measurement": "herbicidal activity against ALOMY found", "setting": "[5]; applied alone at 10 g/ha a.i.", "value": 65}, {"measurement": "herbicidal activity against POLCO found", "setting": "[2]; applied alone at 5 g/ha a.i.", "value": 0}, {"measurement": "herbicidal activity against POLCO found", "setting": "[2]; applied alone at 10 g/ha a.i.", "value": 0}, {"measurement": "herbicidal activity against APESV found", "setting": "[6]; applied alone at 5 g/ha a.i.", "value": 65}, {"measurement": "herbicidal activity against GALAP found", "setting": "[12]; applied alone at 5 g/ha a.i.", "value": 0}, {"measurement": "herbicidal activity against GALAP found", "setting": "[12]; applied alone at 10 g/ha a.i.", "value": 10}]}
